Converted amounts (≈) assume the structure as drawn. The source made the active and inactive calls. No cut-off for these calls is given here. Where a SMILES comes first, the peptide text is derived from it.
Key:
Enterococcus faecalis = test: Antibacterial activity against Enterococcus faecalis ATCC 29212 incubated for 18 hrs by CLSI based broth dilution method; format: functional
Staphylococcus aureus [1] = test: Antibacterial activity against Staphylococcus aureus ATCC 25923 incubated for 18 hrs by CLSI based broth dilution method; format: functional
Klebsiella pneumoniae [2] = test: Synergistic antibacterial activity against Klebsiella pneumoniae ATCC 700603 at 2 times MIC incubated for 18 to 24 hrs in presence of 2 times MIC of gentamycin by broth microdilution assay based checkerboard assay; format: functional; settings: time 18-24 hrs
[3] = Cytotoxicity against human glomerular mesangial cells incubated for 12 hrs by MTT assay; format: cell-based; settings: Glomerular mesangial cell
Escherichia coli [4] = test: Synergistic antibacterial activity against Escherichia coli ATCC 25922 at 2 times MIC incubated for 18 to 24 hrs in presence of 2 times MIC of polymyxin B by broth microdilution assay based checkerboard assay; format: functional; settings: time 18-24 hrs
Klebsiella pneumoniae [5] = test: Synergistic antibacterial activity against Klebsiella pneumoniae ATCC 700603 at 2 times MIC incubated for 18 to 24 hrs in presence of 2 times MIC of rifampicin by broth microdilution assay based checkerboard assay; format: functional; settings: time 18-24 hrs
Acinetobacter baumannii = test: Antibacterial activity against Acinetobacter baumannii ATCC 19606 incubated for 18 hrs by CLSI based broth dilution method; format: functional; settings: ATCC 19606 = CIP 70.34 = JCM 6841
Erythrocyte = test: Hemolytic activity in BALB/C mouse erythrocytes incubated for 1 hr by absorbance method; format: ADME, cell-based
[6] = Selectivity ratio of MHC10 for BALB/C mouse erythrocytes to MIC for fungi; format: toxicity
[7] = Selectivity ratio of MHC10 for BALB/C mouse erythrocytes to MIC for gram positive bacteria; format: toxicity
Bacillus subtilis = test: Antibacterial activity against Bacillus subtilis ATCC 23857 incubated for 18 hrs by CLSI based broth dilution method; format: functional
Escherichia coli [8] = test: Synergistic antibacterial activity against Escherichia coli ATCC 25922 at 2 times MIC incubated for 18 to 24 hrs in presence of 2 times MIC of rifampicin by broth microdilution assay based checkerboard assay; format: functional; settings: time 18-24 hrs
[9] = Selectivity ratio of MHC10 for BALB/C mouse erythrocytes to MIC for gram-negative bacteria; format: toxicity
[10] = system: Staphylococcus epidermidis; test: Antibacterial activity against Staphylococcus epidermidis ATCC 12228 incubated for 18 hrs by CLSI based broth dilution method; format: functional
Pseudomonas aeruginosa [11] = test: Synergistic antibacterial activity against Pseudomonas aeruginosa ATCC 27853 at 2 times MIC incubated for 18 to 24 hrs in presence of 2 times MIC of polymyxin B by broth microdilution assay based checkerboard assay; format: functional; settings: time 18-24 hrs
Klebsiella pneumoniae [12] = test: Synergistic antibacterial activity against Klebsiella pneumoniae ATCC 700603 at 2 times MIC incubated for 18 to 24 hrs in presence of 2 times MIC of polymyxin B by broth microdilution assay based checkerboard assay; format: functional; settings: time 18-24 hrs
Escherichia coli [13] = test: Antibacterial activity against Escherichia coli ATCC 25922 incubated for 18 hrs by CLSI based broth dilution method; format: functional
Klebsiella pneumoniae [14] = test: Antibacterial activity against Klebsiella pneumoniae ATCC 700603 incubated for 18 hrs by CLSI based broth dilution method; format: functional
Escherichia coli [15] = test: Synergistic antibacterial activity against Escherichia coli ATCC 25922 at 2 times MIC incubated for 18 to 24 hrs in presence of 2 times MIC of gentamycin by broth microdilution assay based checkerboard assay; format: functional; settings: time 18-24 hrs
[16] = Selectivity ratio of MHC10 for BALB/C mouse erythrocytes to MIC for bacteria; format: toxicity
Fungi = test: Antibacterial activity against fungi incubated for 18 hrs by CLSI based broth dilution method; format: functional
Bacteria [17] = test: Antibacterial activity against Gram-positive bacteria incubated for 18 hrs by CLSI based broth dilution method; format: functional
Bacteria [18] = test: Antibacterial activity against bacteria incubated for 18 hrs by CLSI based broth dilution method; format: functional
Bacteria [19] = test: Antibacterial activity against Gram-negative bacteria incubated for 18 hrs by CLSI based broth dilution method; format: functional
Pseudomonas aeruginosa [20] = test: Antibacterial activity against Pseudomonas aeruginosa ATCC 27853 incubated for 18 hrs by CLSI based broth dilution method; format: functional
Pseudomonas aeruginosa [21] = test: Synergistic antibacterial activity against Pseudomonas aeruginosa ATCC 27853 at 2 times MIC incubated for 18 to 24 hrs in presence of 2 times MIC of rifampicin by broth microdilution assay based checkerboard assay; format: functional; settings: time 18-24 hrs
Staphylococcus aureus [22] = test: Antibacterial activity against Staphylococcus aureus ATCC 25923 at 0.5 to 1 times MIC incubated for 24 hrs by crystal violet staining based assay; format: functional, organism-based
Klebsiella pneumoniae [23] = test: Antibacterial activity against Klebsiella pneumoniae ATCC 700603 incubated with 0.02 ug/ml chymotrypsin for 6 hrs followed by bacterial addition and measured after 18 hrs by CLSI based broth dilution method; format: functional, organism-based; settings: dose 0.02 µg/ml, time 23.0 hrs
Staphylococcus aureus [24] = test: Antibacterial activity against Staphylococcus aureus ATCC 25923 incubated with 0.02 ug/ml trypsin for 6 hrs followed by bacterial addition and measured after 18 hrs by CLSI based broth dilution method; format: functional, organism-based; settings: dose 0.02 µg/ml, time 23.0 hrs
Staphylococcus aureus [25] = test: Antibacterial activity against Staphylococcus aureus ATCC 25923 incubated with 0.02 ug/ml chymotrypsin for 6 hrs followed by bacterial addition and measured after 18 hrs by CLSI based broth dilution method; format: functional, organism-based; settings: dose 0.02 µg/ml, time 23.0 hrs
Klebsiella pneumoniae [26] = test: Antibiofilm activity against Klebsiella pneumoniae ATCC 700603 at 2 to 4 times MIC incubated for 24 hrs by crystal violet staining based assay; format: functional, organism-based
Escherichia coli [27] = test: Antibiofilm activity against Escherichia coli ATCC 25922 at 4 times MIC incubated for 24 hrs by crystal violet staining based assay; format: functional, organism-based
Klebsiella pneumoniae [28] = test: Antibacterial activity against Klebsiella pneumoniae ATCC 700603 incubated with 0.02 ug/ml trypsin for 6 hrs followed by bacterial addition and measured after 18 hrs by CLSI based broth dilution method; format: functional, organism-based; settings: dose 0.02 µg/ml, time 23.0 hrs
Staphylococcus aureus [29] = test: Bactericidal activity against Staphylococcus aureus ATCC 25923 at 2MIC by time-kill assay; format: functional, organism-based; settings: time 24.0 hrs, TDE = time-dependent effect
Klebsiella pneumoniae [30] = test: Bactericidal activity against Klebsiella pneumoniae 700603 at 2MIC by time-kill assay relative to control; format: functional; settings: 2M, TDE = time-dependent effect
Pseudomonas aeruginosa [31] = test: Antibacterial activity against gentamicin-resistant Pseudomonas aeruginosa ATCC 27853 incubated for 18 hrs by CLSI based broth dilution method; format: functional
Pseudomonas aeruginosa [32] = test: Antibacterial activity against gentamicin-resistant Pseudomonas aeruginosa ATCC 27853 incubated for 18 hrs in presence of EDTA by CLSI based broth dilution method; format: functional, organism-based
Pseudomonas aeruginosa [33] = test: Antibacterial activity against rifampin-resistant Pseudomonas aeruginosa ATCC 27853 incubated for 18 hrs by CLSI based broth dilution method; format: functional

Row | Compound | MIC (Enterococcus faecalis) [µM] | MIC (Staphylococcus aureus [1]) [µM] | IC50 [3] [µM] | MIC (Acinetobacter baumannii) [µM] | MHC10 (Erythrocyte) [µM] | selectivity ratio [6] | selectivity ratio at 18 h [7] | MIC (Bacillus subtilis) [µM] | selectivity ratio [9] | MIC [10] [µM] | FIC (Pseudomonas aeruginosa [11]) | MIC (Escherichia coli [13]) [µM] | MIC (Klebsiella pneumoniae [14]) [µM] | selectivity ratio [16] | MIC (Fungi) [µM] | MIC (Bacteria [17]) [µM] | MIC (Bacteria [18]) [µM] | MIC (Bacteria [19]) [µM] | MIC (Pseudomonas aeruginosa [20]) [µM] | FIC (Pseudomonas aeruginosa [21]) | other results
1 | CC(C)C[C@H](NC(=O)CN)C(=O)N[C@@H](Cc1c[nH]c2ccccc12)C(=O)N[C@@H](CCCCN)C(=O)N[C@@H](CCCNC(=N)N)C(=O)N[C@@H](Cc1c[nH]c2ccccc12)C(=O)N[C@@H](CCCCN)C(=O)N[C@@H](CCCCN)C(=O)N[C@@H](Cc1ccccc1)C(=O)N[C@@H](Cc1c[nH]c2ccccc12)C(N)=O (H-GLWKRWKKFW-NH2) | 32 (≈ 45.9 µg/mL) | 8 (≈ 11.5 µg/mL) | 39 | 16 (≈ 22.9 µg/mL) | 83.63 | 8.06 | 6.19 | 8 (≈ 11.5 µg/mL) | 10.4 | 16 (≈ 22.9 µg/mL) | 0.25 | 8 (≈ 11.5 µg/mL) | 8 (≈ 11.5 µg/mL) | 8.06 | 10.4 (≈ 14.9 µg/mL) | 13.5 (≈ 19.4 µg/mL) | 10.4 (≈ 14.9 µg/mL) | 8 (≈ 11.5 µg/mL) | 8 (≈ 11.5 µg/mL) | 0.3125 | FIC (Klebsiella pneumoniae [2]): 0.75; FIC (Escherichia coli [4]): 0.3125; FIC (Klebsiella pneumoniae [5]): 0.5625; FIC (Escherichia coli [8]): 0.5; FIC (Klebsiella pneumoniae [12]): 0.5625; FIC (Escherichia coli [15]): 0.5
2 | N=C(N)NCCC[C@H](NC(=O)[C@H](CCCCN)NC(=O)[C@H](Cc1c[nH]c2ccccc12)NC(=O)[C@H](Cc1c[nH]c2ccccc12)NC(=O)[C@@H](N)CCCCN)C(=O)N[C@@H](Cc1c[nH]c2ccccc12)C(=O)N[C@@H](CCCCN)C(=O)N[C@@H](CCCCN)C(=O)N[C@@H](Cc1c[nH]c2ccccc12)C(=O)N[C@@H](Cc1c[nH]c2ccccc12)C(N)=O (H-KWWKRWKKWW-NH2) | 16 (≈ 25.9 µg/mL) | 8 (≈ 12.9 µg/mL) | 19.8 | 8 (≈ 12.9 µg/mL) | 77.65 | 8.16 | 9.71 | 4 (≈ 6.47 µg/mL) | 6.87 | 8 (≈ 12.9 µg/mL) | 0.25 | 16 (≈ 25.9 µg/mL) | 16 (≈ 25.9 µg/mL) | 8.16 | 9.51 (≈ 15.4 µg/mL) | 8 (≈ 12.9 µg/mL) | 9.51 (≈ 15.4 µg/mL) | 11.3 (≈ 18.3 µg/mL) | 16 (≈ 25.9 µg/mL) | 0.3125 | –
3 | CC[C@H](C)[C@H](NC(=O)CN)C(=O)NCC(=O)N[C@@H](C)C(=O)N[C@H](C(=O)N[C@@H](CC(C)C)C(=O)N[C@@H](CCCCN)C(=O)N[C@H](C(=O)N[C@@H](CC(C)C)C(=O)N[C@H](C(=O)N[C@H](C(=O)NCC(=O)N[C@@H](CC(C)C)C(=O)N1CCC[C@H]1C(=O)N[C@@H](C)C(=O)N[C@@H](CC(C)C)C(=O)N[C@H](C(=O)N[C@@H](CO)C(=O)N[C@@H](Cc1c[nH]c2ccccc12)C(=O)N[C@H](C(=O)N[C@@H](CCCCN)C(=O)N[C@@H](CCCNC(=N)N)C(=O)N[C@@H](CCCCN)C(=O)N[C@@H](CCCNC(=N)N)C(=O)N[C@@H](CCC(N)=O)C(=O)N[C@@H](CCC(N)=O)C(N)=O)[C@@H](C)CC)[C@@H](C)CC)[C@@H](C)O)[C@@H](C)O)C(C)C)C(C)C [MELITTIN] | 4 (≈ 11.4 µg/mL) | – | – | 2 (≈ 5.69 µg/mL) | 2.26 | 57 | 0.95 | – | 0.34 | – | – | – | 16 (≈ 45.5 µg/mL) | 57 | 4 (≈ 11.4 µg/mL) | 2.38 (≈ 6.77 µg/mL) | 4 (≈ 11.4 µg/mL) | 6.73 (≈ 19.2 µg/mL) | – | – | Activity (Staphylococcus aureus [22]): Active; Activity (Klebsiella pneumoniae [23]): inactive; Activity (Staphylococcus aureus [24]): inactive; Activity (Staphylococcus aureus [25]): inactive; Activity (Klebsiella pneumoniae [26]): Active; Activity (Escherichia coli [27]): Active; Activity (Klebsiella pneumoniae [28]): inactive
4 | CN[C@H](CC(C)C)C(=O)N[C@H]1C(=O)N[C@@H](CC(N)=O)C(=O)N[C@H]2C(=O)N[C@H]3C(=O)N[C@H](C(=O)N[C@H](C(=O)O)c4cc(O)cc(O)c4-c4cc3ccc4O)[C@H](O)c3ccc(c(Cl)c3)Oc3cc2cc(c3O[C@@H]2O[C@H](CO)[C@@H](O)[C@H](O)[C@H]2O[C@H]2C[C@](C)(N)[C@H](O)[C@H](C)O2)Oc2ccc(cc2Cl)[C@H]1O [VANCOMYCIN] | < 1 | < 1 | – | < 1 | – | – | – | < 1 | – | < 1 | – | 64 (≈ 92.8 µg/mL) | ≥ 128 | – | – | – | – | – | 64 (≈ 92.8 µg/mL) | – | Activity (Staphylococcus aureus [29]): Tde; Activity (Klebsiella pneumoniae [30]): Tde
5 | GENTAMICIN | 4 | < 1 | – | < 1 | – | – | – | < 1 | – | < 1 | – | 4 | 16 | – | – | – | – | – | 4 | – | MIC (Pseudomonas aeruginosa [31]): 64 µM; MIC (Pseudomonas aeruginosa [32]): 8 µM; MIC (Pseudomonas aeruginosa [33]): 0.5 µM

Source: ChEMBL document CHEMBL4823282, “Novel Broad-Spectrum Antimicrobial Peptide Derived from Anoplin and Its Activity on Bacterial Pneumonia in Mice” (J Med Chem, 2021)
